In patent publication US4579848A, “5-substituted[1,2,4]triazolo[1,5-c]pyrimidin-2-amines” (American Cyanamid Company, priority 1984, dated 1986):

System: immunologically stimulated human basophils
Assay: Inhibition of histamine release from immunologically stimulated human basophils
Format: cell-based
Settings: Leukocyte, 1 h; human leukocytes challenged with anti-IgE or antigen, 60 minutes at 37° C.; linear regression; read-out: ED50 (the concentration in μM which causes a 50% inhibition of histamine release)
Method: The novel compounds of this invention have been tested by the procedure of Lichtenstein, L. M. and Osler, A. G., J. Exp. Med., 120, 507-530 (1964), which evaluates the ability of compounds to inhibit mediator (histamine) release from immunologically stimulated human basophils.
Eighty milliliters of blood is withdrawn from subjects with known histamine release to anti-IgE, ragweed antigen or other specific allergen, using four 20 ml heparinized tubes. This 80 ml of blood is mixed with 20 ml of saline containing 0.6 g of dextrose and 1.2 g of dextran. The blood is allowed to sediment at room temperature in two 50 ml polycarbonate centrifuge tubes until a sharp interface develops between the red cells and plasma (60-90 minutes). The plasma (top) layer from each tube is withdrawn by pipet and transferred to respective 50 ml polycarbonate tubes. The plasma is centrifuged for 8 minutes at 110X g at 4° C. The supernatant is carefully poured off as completely as possible and the cell button is resuspended in 2-3 ml of Tris-A buffer using a siliconized Pasteur pipet. The resuspension is accomplished by drawing the liquid gently in and out of the pipet, with the tip below the liquid, until an even suspension of cells is obtained. Sufficient Tris-A buffer is then added to bring the volume in the tube to about 45 ml and the tube is centrifuged at 110X g for 8 minutes at 4° C. The supernatant is poured off and the cell button is resuspended and centrifuged as described above. The supernatant is poured off and the cell button is suspended in 2-3 ml of Tris-ACM buffer to make the final volume sufficient to allow addition to the reaction tubes.
Reaction tubes containing anti-IgE or antigens, either alone or with test compound in a total volume of 0.2 ml are prepared and placed in a 37° C. bath. The cells are warmed to 37° C. and frequently swirled to ensure an even suspension, while 1.0 ml aliquots are added to each reaction tube. The tubes are then incubated for 60 minutes at 37° C., vortexing the tubes gently every 15 minutes to keep the cells evenly suspended. When the reaction is complete, the tubes are centrifuged at 4° C. for 10 minutes at 1500 rpm to sediment the cells. One ml aliquots of supernatant are transferred to 12X 75 mm polyethylene tubes and 0.2 ml of 8% perchloric acid is added to each tube. Blanks and totals are included in each test. The blanks have cells and all reagents except antigen or anti-IgE. The totals contain 0.24 ml of 8% perchloric acid, one ml of cells and 0.2 ml of buffer. All samples are then centrifuged to remove the precipitate protein.
This automated method has been described by Siraganian, R. P., in Anal. Biochem., 57, 383 (1974) and J. Immunol. Methods, 7, 283 (1975) and is based on the manual method of Shore, P. A., et al., J. Pharmacol. Exp. Ther., 217, 182 (1959).
The automated system consists of the following Technicon Autoanalyzer II components: Sampler IV, Dual-Speed Proportioning Pump III, Fluoronephelometer with a narrow pass primary filter 7-60 and a secondary filter 3-74, Recorder, and Digital Printer. The manifold used is the one described by Siraganian vide supra, with the following modifications: the dialyzer is omitted; all pumping tubes pass through a single proportioning pump with large capacity and twice the volume of sample is taken for analysis.
The automated chemistry consists of the following steps: Extraction from alkaline saline into butanol, back extraction into dilute hydrochloric acid by addition of heptane, reaction of histamine with o-phthaldialdehyde(OPT) at high pH and conversion of the OPT adduct to a stable fluorophore with phosphoric acid. The reaction product is then passed through the fluorometer. The full scale response is adjusted to 50 ng histamine base with a threshold sensitivity of approximately 0.5 ng.
The instrument blank (wash) is subtracted from the ng histamine of each sample. […]

Row | SMILES | IC50 [µM]
1 | CN(C)C(=O)c1cccc(-c2nccc3nc(N)nn23)c1 [3-(2-Amino[1,2,4]triazolo[1,5-c]pyrimidin-5-yl)-N,N--dimethylbenzamide] | 11
2 | Nc1nc2ccnc(-c3cccc(C=O)c3)n2n1 [3-(2-Amino[1,2,4]triazolo[1,5-c]pyrimidin-5-yl)benzaldehyde] | 0.8
3 | CCOC(=O)c1ccc(-c2nccc3nc(N)nn23)cc1 [4-(2-amino[1,2,4]triazolo[1,5-c]pyrimidin-5-yl)benzoic acid, ethyl ester] | 16
4 | C#Cc1cccc(-c2nccc3nc(N)nn23)c1 [5-(3-Ethynylphenyl)[1,2,4]triazolo[1,5-c]pyrimidin-2-amine] | 14
5 | Cc1cnccc1-c1nccc2nc(N)nn12 [5-(3-methyl-4-pyridinyl)[1,2,4]triazolo[1,5-c]pyrimidin-2-amine] | 3.8
6 | Nc1nc2ccnc(-c3cccc([N+](=O)[O-])c3)n2n1 [5-(3-nitrophenyl)[1,2,4]triazolo[1,5-c]pyrimidin-2-amine] | 3.8
7 | Nc1nc2ccnc(-c3cccnc3)n2n1 [5-(3-pyridinyl)[1,2,4]triazolo[1,5-c]pyrimidin-2-amine] | 49.4
8 | Nc1nc2ccnc(-c3cc[n+]([O-])cc3)n2n1 [5-(4-Pyridinyl)[1,2,4]triazolo[1,5-c]pyrimidin-2-amine, pyridine-1-oxide] | 4.9
9 | Nc1nc2ccnc(-c3ccc(F)cc3)n2n1 [5-(4-fluorophenyl)[1,2,4]triazolo[1,5-c]pyrimidin-2-amine] | 31
10 | Nc1nc2ccnc(-c3ccncc3)n2n1 [5-(4-pyridinyl)[1,2,4]triazolo[1,5-c]pyrimidin-2-amine] | 33
11 | Nc1nc2ccnc(-c3cccc(C(Cl)Cl)c3)n2n1 [5-[3-(dichloromethyl)phenyl][1,2,4]triazolo[1,5-c]pyrimidin-2-amine] | 1.2
12 | Nc1nc2ccnc(-c3cccc(OC(F)F)c3)n2n1 [5-[3-(difluoromethoxy)phenyl][1,2,4]triazolo[1,5-c]pyrimidin-2-amine] | 3
13 | Cc1ccc(S(=O)(=O)Nc2cccc(-c3nccc4nc(N)nn34)c2)cc1 [N-[3-(2-Amino[1,2,4]triazolo[1,5-c]pyrimidin-5yl)phenyl]-4-methylbenzenesulfonamide] | 1.5
14 | CC(=O)Nc1nc2ccnc(-c3cccc(NS(=O)(=O)c4ccc(C)cc4)c3)n2n1 [N-[5-[3-[[(4-Methylphenyl)sulfonyl]amino]phenyl]-[1,2,4]triazolo[1,5-c]pyrimidin-2-yl]acetamide] | 1.7
15 | CC(=O)Nc1nc2c(C)cnc(-c3cccc(NS(=O)(=O)c4ccc(C)cc4)c3)n2n1 [N-[8-Methyl-5-[3-[[4-methylphenyl)sulfonyl]amino]phenyl][1,2,4]triazolo[1,5-c]pyrimidin-2-yl]acetamide] | 34.4

More lines, now with the values ahead:

Row | IC50 [µM] | SMILES
16 | 20 | CC(=O)Nc1nc2ccnc(-c3cccc(C(F)(F)F)c3)n2n1
17 | 9.5 | OC(CCl)CNc1nc2ccnc(-c3cccc(C(F)(F)F)c3)n2n1 (centres unmarked) [1-Chloro-3-[[5-[3-(trifluoromethyl)phenyl][1,2,4]triazolo[1,5-c]pyrimidin-2-yl]amino]-2-propanol]
18 | 11 | CCOC(=O)c1cccc(-c2nccc3nc(N)nn23)c1 [3-(2-amino[1,2,4]triazolo[1,5-c]pyrimidin-5-yl)benzoic acid, ethyl ester]
19 | 7.8 | Cc1cccc(-c2nccc3nc(N)nn23)c1 [5-(3-Methylphenyl)[1,2,4]triazolo[1,5-c]pyrimidin-2-amine]
20 | 3.3 | Nc1nc2ccnc(-c3cccc(Br)c3)n2n1 [5-(3-bromophenyl)[1,2,4]triazolo[1,5-c]pyrimidin-2-amine]
21 | 4.3 | Nc1nc2ccnc(-c3cccc(Cl)c3)n2n1 [5-(3-chlorophenyl)[1,2,4]triazolo[1,5-c]pyrimidin-2-amine]
22 | 0.7 | Nc1nc2ccnc(-c3cc(C(F)(F)F)cc(C(F)(F)F)c3)n2n1 [5-[3,5-bis(trifluoromethyl)phenyl][1,2,4]triazolo[1,5-c]pyrimidin-2-amine]
23 | 2.7 | Nc1nc2ccnc(-c3cccc(C(F)(F)F)c3)n2n1 [5-[3-(trifluoromethyl)phenyl][1,2,4]triazolo[1,5-c]pyrimidin-2-amine]
24 | 100 | Cc1cc2nc(N)nn2c(-c2cccc(C(F)(F)F)c2)n1 [7-methyl-5-[3-(trifluoromethyl)phenyl][1,2,4]triazolo[1,5-c]pyrimidin-2-amine]
25 | 8.7 | Cc1cnc(-c2cccc([N+](=O)[O-])c2)n2nc(N)nc12 [8-Methyl-5-(3-nitrophenyl)[1,2,4]triazolo[1,5-c]pyrimidin-2-amine]
26 | 5.6 | Cc1cnc(-c2cccc(C(F)(F)F)c2)n2nc(N)nc12 [8-Methyl-5-[3-(trifluoromethyl)phenyl][1,2,4]triazolo[1,5-c]pyrimidin-2-amine]
27 | 16 | CNc1nc2ccnc(-c3cccc(C(F)(F)F)c3)n2n1 [N-Methyl-5-[3-trifluoromethyl)phenyl][1,2,4]triazolo[1,5-c]pyrimidin-2-amine]
28 | 11 | CC(=O)Nc1nc2c(C)cnc(-c3cccc([N+](=O)[O-])c3)n2n1 [N-[8-Methyl-5-(3-nitrophenyl)[1,2,4]triazolo[1,5-c]pyrimidin-2-yl]acetamide]

System: female Hartley-strain guinea pigs
Assay: Passive Anaphylaxis Test
Format: in vivo, guinea pig
Parameters: key: If the Fisher test is significant, the compound is considered active; If the rank sum test is significant, the compound is considered to have weak activity
Settings: oral, one hour before ovalbumin challenge; standard dose 50 mg/kg; ten animals
Method: At -48 hours (relative to antigen challenge at time 0), 2 ml of saline containing 0.2-0.05 IgG hyperimmune serum (depending on batch of antibody used) was injected intraperitoneally (i.p.) into 250-300 g female Hartley-strain guinea pigs. One hour before challenge, the test compound is given to ten animals orally at 4 ml/kg of a suspension in 0.5% carboxymethylcellulose. The standard dose is 50 mg/kg. Ten control animals receive the vehicle only. The challenge consists of an intravenous injection of 0.25-2.0 mg of ovalbumin in one ml of saline. The time to the first observable symptom of anaphylaxis (normally this is a scratching of the nose) and the time to loss of righting reflex are recorded for each animal. Thirty minutes after the challenge the numbers of deceased and living animals are also recorded.
The treated and control groups are compared by a Mann-Whitney rank sum test for the times to symptom and times to collapse. In addition, a Fisher's exact test is done on the number of collapsed vs. noncollapsed for control and treated groups. If the Fisher test is significant, the compound is considered active. If the rank sum test is significant, the compound is considered to have weak activity.

Row | SMILES | activity in passive anaphylaxis test (Fisher's exact test on collapsed vs. noncollapsed)
29 | Nc1nc2ccnc(-c3ccccn3)n2n1 [5-(2-pyridinyl)[1,2,4]triazolo[1,5-c]pyrimidin-2-amine] | active
